Assay results from patent US20050070460A1 (priority 2003, published 2005).

Assays:
[1] = tested on: MDCK cells; settings: Influenza A (H1N1) test
[2] = in vitro; settings: dog
[3] = tested on: Influenza A/New Calcdonia/20/99 (H1N1); experiment: microbe, parasite or virus in culture; settings: H1N1, MDCK
[4] = tested on: Influenza A/New Calcdonia/20/99 (H1N1)
[5] = tested on: Influenza A/Panama/2007/99 (H3N2)
[6] = tested on: Influenza A/Panama/2007/99 (H3N2); experiment: microbe, parasite or virus in culture; settings: H3N2, MDCK
[7] = tested on: Human coronavirus (HcoV), strain OC43
[8] = in vitro; settings: African green monkey
[9] = tested on: Severe acute respiratory syndrome (SARS) coronavirus, strain Urbani
[10] = tested on: humanized, non-lethal influenza virus; experiment: Viral titers in rats after intranasal pre-infection treatment and influenza challenge; format: in vivo, Fisher 344 rats; settings: intranasal administration prior to infection, 24 hours after the infection, compared also to IFN-α pretreatment
[11] = tested on: Severe acute respiratory syndrome (SARS) coronavirus, strain Urbani; experiment: microbe, parasite or virus in culture; settings: Severe acute respiratory syndrome-related coronavirus, Vero 76, SARS, Vero 76 cells; PBMC supernatant = indirect, IRM in media = direct
[12] = tested on: Human coronavirus (HcoV), strain OC43; experiment: microbe, parasite or virus in culture; settings: unidentified human coronavirus, OC43, BSC-1

| SMILES | CC50 [1] | CC50 [2] | EC50 [3] | SI (CC50/EC50) [4] | SI (CC50/EC50) [5] | EC50 [6] | SI (CC50/EC50) [7] | CC50 [8] | SI (CC50/EC50) [9] | antiviral activity (in words) [9] | viral titer present in the lung [10] | viral titer present in the nasal cavity [10] | EC50 [11] | EC50 [12] |
| --- | --- | --- | --- | --- | --- | --- | --- | --- | --- | --- | --- | --- | --- | --- |
| NC(=O)c1ncn([C@@H]2O[C@H](CO)[C@@H](O)[C@H]2O)n1 [Ribavirin, ribavirin, reference compound] | > 450 µM | > 450 µM | 14 µM | >32 | >19 | 24 µM |  |  |  |  |  |  |  |  |
| CCOCc1nc2c(N)nc3ccccc3c2n1CC(C)(C)NS(C)(=O)=O [IRM, N-{2-[4-amino-2-(ethoxymethyl)-1H-imidazo[4,5-c]quinolin-1-yl]-1,1-dimethylethyl}methanesulfonamide] | > 300 µM | > 300 µM | > 300 µM | 0 | 0 | > 300 µM | 0 | > 150 µM | 50 | significant direct activity | dramatically reduced | dramatically reduced | ~3000 nM | > 150 µM |
